This is an account of results in ChEMBL document CHEMBL1153463 (Bioorg Med Chem Lett, 2009).

The nature of data set [1]: Metabolic stability in human liver mocrosomes. As to conditions: liver microsomes. On the technique in general: Liver microsomes are a subcellular fraction often used to study metabolism.
The subject of data set [2] is Respiratory syncytial virus. The data set can be described thus: Antiviral activity against RSV assessed as inhibition of viral replication by cell based assay. Type of data set: functional, organism-based. As to conditions: human respiratory syncytial virus.
Data set [3] in a line: Permeability across human Caco-2 cells. On the technique in general: Passage across Caco-2 layers is used to estimate intestinal permeability.
Data set [4] has as its system Respiratory syncytial virus. The data set can be described thus: Antiviral activity against RSV infected in BALB/c mouse assessed as log reduction in viral titer. Format: functional.
Data set [5] can be described thus: in vivo. As to conditions: rat, iv, 1 mg/kg.
Data set [6] is described as follows: in vivo. The note with it: rat, po, 5 mg/kg.
A short description of data set [7]: in vivo. As to conditions: rat, po, 5 mg/kg. This is another data set of the same source.
Data set [8] in a line: Volume of distribution at steady state in rat at 1 mg/kg, iv. As to conditions: in vivo.
A short description of data set [9]: in vivo. As to conditions: rat, iv, 1 mg/kg. The source holds these as a separate data set.
Data set [10] relates to Respiratory syncytial virus. The data set can be described thus: Antiviral activity against RSV infected in BALB/c mouse assessed as reduction viral replication by RT-PCR. Type of data set: functional.

A value given as a limit tells only on which side of the number the result lay.

Turning to `CS(=O)(=O)CCCn1c(CN2C(=O)/C(=N/OCc3ccccn3)c3ccncc32)nc2ccccc21`, in data set [1], the half-life worked out at 21 min. Moreover, the EC50 in [2] came to 29 nM. Further, the Papp in data set [3] was determined as 1.6 ×10⁻⁶ cm/s.

`CS(=O)(=O)c1ccc(CO/N=C2/C(=O)N(Cc3nc4ccccc4n3CCCCO)c3ncccc32)cc1` displayed a half-life in [1] of 5.3 min. The EC50 in [2] turned out to be 7.3 nM. Further, the Papp in data set [3] came to 7.1 ×10⁻⁶ cm/s.

On to `O=C1/C(=N/OCCF)c2ccncc2N1Cc1nc2ccccc2n1CCCCO`, for which the half-life in [1] is 100 min. In addition, the EC50 in [2] amounted to 54.2 nM. In data set [4], the deltaTCID50 is 0.68. Besides, the Papp in data set [3] was found to be 5.3 ×10⁻⁶ cm/s.

`N#CCCCn1c(CN2C(=O)/C(=N/OCC(F)(F)F)c3cccnc32)nc2ccccc21` displayed a half-life in data set [1] of 48 min. For the same molecule, in data set [2], the EC50 came to 112 nM. In [3], this molecule showed a Papp of 18 ×10⁻⁶ cm/s.

Consider `O=C1/C(=N/OCCF)c2cccnc2N1Cc1nc2ccccc2n1CCCCO`, for which the half-life in data set [1] was 44 min. In addition, the EC50 in [2] was found to be 43.1 nM. In addition, the deltaTCID50 in [4] is recorded as 0.62. The Papp in data set [3] turned out to be 11.5 ×10⁻⁶ cm/s.

For `CS(=O)(=O)CCCn1c(CN2C(=O)/C(=N/OCCF)c3cccnc32)nc2ccccc21`, the half-life in [1] was more than 100 min; in the data set “in vivo [5]”, 12 min. In “in vivo [6]”, this molecule registered a Cmax of 14 ng/mL. Further, in data set [2], the EC50 was 29.2 nM. In the data set “in vivo [7]”, this molecule came in with a bioavailability of 14%. This molecule came in with a Vd in data set [8] of 1.8 L/kg. For the same molecule, the deltaTCID50 in [4] came to 1.05. This molecule also had a clearance in “in vivo [9]” of 130 mL/min/kg. In addition, the Ratio in data set [10] worked out at 45. Besides, the Papp in data set [3] was found to be 18.2 ×10⁻⁶ cm/s.

For orientation: half-life means the time in which the quantity being followed falls by half. A low value points to fast loss. As usually defined, the EC50 is the concentration giving half of the maximal effect. As a reminder, the Papp is the rate of passage across a membrane or cell layer, normalised by area and donor concentration. A low value points to slow passage. The Cmax is the maximum level reached in the sampled fluid or tissue. By bioavailability is commonly meant the share of a dose that reaches the circulation, judged against a reference dose that is usually intravenous. For orientation: Vd means the apparent volume that relates the amount in the body to the concentration in plasma or blood. High values mean extensive tissue distribution, low ones confinement near the circulation. The term clearance denotes the volume of plasma or blood freed of the substance per unit of time.
